Results taken from US11453640B2, “Small molecules for disrupting the super elongation complex and inhibiting transcription elongation for cancer therapy” (NORTHWESTERN UNIVERSITY, priority 2018, dated 2022).

system: not listed separately; assay: Toxicity test in mice (body weight, sickness); type: in vivo; settings: 5 doses of 10 mg/kg, intraperitoneal, monitored 35 days
Protocol: FIG. 14, related to FIG. 7. SEC disruptors delay tumor progression and improve survival of MDA231-LM2 tumor mice. (A) KL-1 and KL-2 inhibit the colony formation of MDA231-LM2 cells in vitro. 5×10^3 MDA231-LM2 cells were seeded in 6-well plates and treated with KL-1 or KL-2 at the indicated doses for 5 days. Crystal violet staining was performed to stain the colonies. (B) KL-1 and KL-2 induce apoptosis in MDA231-LM2 cells. Bar graph depiction of Annexin V positive MDA231-LM2 cells after 24 hr of KL-1 and KL-2 treatments at the indicated concentrations. Data are represented as Mean+/−SD. […] Each individual line indicates the weights of each mouse during toxicity test.

**Q.** Which “weight loss in mice” value does the source give for `Cc1ccc(Cl)cc1NC(=O)C(=O)CC(=O)c1ccc(F)cc1` [KL-2, N-(5-chloro-2-methylphenyl)-4-oxo-(4-fluorophenyl)-2-oxobutanamide] here?
**A.** The value was “does not result in significant weight loss”.

same assay, conditions: 5 doses of 10 mg/kg, monitored 35 days

**Q.** With `Cc1ccc(Cl)cc1NC(=O)C(=O)CC(=O)c1ccc(F)cc1` [KL-2, N-(5-chloro-2-methylphenyl)-4-oxo-(4-fluorophenyl)-2-oxobutanamide] as the molecule, how does the “sign of sickness in mice” value read?
**A.** The value was “no obvious sign of sickness was observed”.

biological target: T1, AFF4-CCNT1 interaction (GST-CCNT1 AA 1-300 and biotin-AFF4 peptide AA 32-67) (Homo sapiens, UniProt O60563); assay: AlphaLISA assay of the AFF4-CCNT1 interaction (Alpha Screen); type: binding; settings: not given
T1 construct: Recombinant GST-CCNT1 (1-300), which was purified by Glutathione Superflow Agarose from Rosetta cells; VCPBIO (peptide synthesis) Addgene P#432; host or cells: Rosetta cells
T1 sequence (O60563 1-300): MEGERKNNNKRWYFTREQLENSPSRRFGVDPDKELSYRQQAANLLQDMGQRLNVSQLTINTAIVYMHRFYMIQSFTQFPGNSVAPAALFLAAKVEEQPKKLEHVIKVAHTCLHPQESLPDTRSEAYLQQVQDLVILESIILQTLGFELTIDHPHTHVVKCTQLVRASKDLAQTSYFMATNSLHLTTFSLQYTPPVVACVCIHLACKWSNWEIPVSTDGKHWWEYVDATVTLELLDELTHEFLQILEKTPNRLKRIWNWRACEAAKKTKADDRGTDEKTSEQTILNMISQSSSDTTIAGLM
Text: FIG. 1. Peptidomimetic identification of disruptors of the AFF4-CCNT1 interaction within the Super Elongation Complex. (A) Schematic for the identification of small molecule inhibitors of the AFF4-CCNT1 interaction using in silico high-throughput screening. Compounds from the ZINC database were docked with the AFF4-CCNT1 structure (4IMY) using a three-tier glide-docking algorithm, which led to 40 candidates. Residues forming the deep binding pocket of CCNT1 are labeled orange and residues of the AFF4 peptide are labeled red. (B) Validation screening identified KL-1 as a potential SEC disruptor using AlphaLISA screening. GST-CCNT1 (AA 1-300) and biotin-labeled AFF4 peptide (AA 32-67) were used to measure the AFF4-CCNT1 interaction with the AlphaLISA assay. (C) Similarity search for KL-1-like molecules identified KL-2. The peptidomimetic potential of KL-1 and KL-2 can be seen by overlaying them with the AFF4 peptide LFAEP structure. (D) Dose-dependent inhibition of KL-1 and KL-2 on AFF4-CCNT1 interaction. The Ki constants of both compounds were measured with the AlphaLISA assays. (E) Treatment of HEK293T cells with KL-1 and KL-2 results in reduced protein levels of SEC components AFF1 and AFF4 but not CDK9 or CCNT1. HEK293T cells were treated with 20 μM of SEC inhibitors KL-1 or KL-2 for 6 hr. 5 μl, 10 and 20 μl cell lysates were loaded and the protein levels of AFF1, AFF4, CCNT1, CDK9 and Tubulin (load control) were determined by western blotting.
FIG. 8, related to FIG. 1. Peptidomimetic identification of disruptors of the AFF4-CCNT1 interaction within the Super Elongation Complex. (A) Schematic of AlphaLISA assay of the AFF4-CCNT1 interaction. Anti-GST AlphaLISA acceptor beads and AlphaScreen streptavidin donor beads (Perkin Elmer) were used to detect the interaction of GST-CCNT1 (AA1-300) and biotin-AFF4 (AA32-67). (B-C) Optimization of the AlphaLISA assay with various biotin-AFF4 peptide and GST-CCNT1 concentrations. No CCNT1 (B) and mutant AFF4 (C) were used as negative controls. Data are represented as Mean+/−SD. (D) Scheme for chemical synthesis of SEC inhibitors KL-1 and KL-2. Reagents and conditions: a. LDA, THF, −78° C., 15 min., then diethyl oxalate, −78° C. to room temperature. b. NaOH, THF/H2O, room temperature, 15 min. c. EEDQ, 5-chloro-2-methylaniline, THF, room temperature, 24 hr. […] 293T cells were treated with 20 μM of KL-1 or KL-2 for 6 hr, and the protein levels of BRD2, BRD4, Pol II (RPB1), SPT5, MED26, MYC, HSP90 (load control) and Tubulin (load control) were measured by western blotting. (F) Treatment of HCT-116 cells with KL-1 and KL-2 reduced protein levels of SEC components AFF1 and AFF4 but not CDK9 or CCNT1. HCT-116 cells were treated with 20 μM of KL-1 or KL-2 for 6 hr, and the protein levels of AFF1, AFF4, CCNT1, CDK9 and Tubulin (load control) were determined by western blotting. (G-H) Treating cells with KL-1 and KL-2 results in reduced levels of AFF 1 and AFF4. FLAG-AFF1 (G) and FLAG-AFF4 (H) were expressed under the Tet-inducible promoter in HEK293T cells. Cells were treated with 20 μM of the indicated inhibitors for 6 hr for western blotting. […] RNA-seq was performed in HEK293T cells treated for 12 hr with 20 μM of the indicated inhibitors. The log2CPM (counts per million) of the SEC subunits were calculated with HTseq. KL-1 and KL-2 had no significant effects on CCNT1, CDK9 and AFF1 expression, but modest increases in the mRNA levels of AFF4 and ELL2 were observed (n=3). Unpaired two-way ANOVA was used for the statistical testes. **,p<0.05, ***,p<0.001.
To test if candidate compounds can disrupt the AFF4-CCNT1 interaction in vitro, we established and optimized a bead-based AlphaLISA assay with recombinant CCNT1 (1-300) protein and synthesized Biotin-AFF4 peptides (AA 32-67) (FIGS. 8A, 8B and 8C).
AlphaLISA Assay. The interaction of CCNT1-AFF4 was measured by Perkin Elmer's bead-based AlphaLISA assays. […]

**Q.** For `Cc1ccccc1NC(=O)C(=O)CC(=O)c1ccc(F)cc1` [NUCC-0202092], which IC50 is on record?
**A.** Its IC50 is 14.8 ± 2 µM.

**Q.** For `O=C(CC(=O)c1ccc(F)cc1)C(=O)NCc1ccncc1` [NUCC-0201689], which IC50 is on record?
**A.** The IC50 was ≥ 30 µM.

**Q.** With `COc1cc(NC(=O)C(=O)CC(=O)c2cccc(OC)c2)cc(OC)c1` [NUCC-0201922] as the molecule, how does the IC50 read?
**A.** Its IC50 is 14.3 µM.

**Q.** Which IC50 does the source give for `Cc1ccc(Cl)cc1NC(=O)[C@@H](O)CC(=O)c1ccc(F)cc1` [NUCC-0202170] here?
**A.** Its IC50 is 30.6 ± 1.4 µM.

**Q.** For `COc1cccc(C(=O)CC(=O)C(=O)Nc2cccc(OC)c2C)c1` [NUCC-0201929], which IC50 is on record?
**A.** The IC50 was 15.7 µM.

**Q.** For `COc1cccc(C(=O)CC(=O)C(=O)Nc2cc(C(=O)O)ccc2C)c1` [NUCC-0201926], which IC50 is on record?
**A.** Its IC50 is 15.2 ± 8 µM.

**Q.** For `Cc1nc(NC(=O)C(=O)CC(=O)c2ccc(F)cc2)no1` [NUCC-0201691], which IC50 is on record?
**A.** Its IC50 is ≥ 60 µM.

**Q.** With `O=C(CC(=O)c1ccc(F)cc1)C(=O)Nc1nn[nH]n1` [NUCC-0201690] as the molecule, how does the IC50 read?
**A.** Its IC50 is 9.88 ± 0.6 µM.

**Q.** For `O=C(CC(=O)c1ccc(F)cc1)C(=O)Nc1cccc(Cl)c1` [NUCC-0202068], which IC50 is on record?
**A.** Its IC50 is 11.4 ± 0.9 µM.

**Q.** For `COc1cccc(C(=O)CC(=O)C(=O)Nc2ccc(Cl)c(Cl)c2)c1` [NUCC-0201923], which IC50 is on record?
**A.** The IC50 was 12.8 µM.

**Q.** Which IC50 does the source give for `COc1cccc(C(=O)CC(=O)C(=O)Nc2cccc(Cl)c2)c1` [NUCC-0201925] here?
**A.** The IC50 was 14.4 µM.

**Q.** Which IC50 does the source give for `COc1cccc(C(=O)CC(=O)C(=O)Nc2cncnc2C)c1` [NUCC-0201927] here?
**A.** The IC50 was 17.9 ± 2.4 µM.

**Q.** Which IC50 does the source give for `O=C(CC(=O)c1ccc(F)cc1)C(=O)NCc1ccccc1` [NUCC-0201688] here?
**A.** The IC50 was ≥ 30 µM.

**Q.** With `COc1cccc(C(=O)CC(=O)C(=O)Nc2ccc(F)cc2)c1` [NUCC-0201924] as the molecule, how does the IC50 read?
**A.** Its IC50 is 20 µM.

**Q.** With `COc1cccc(NC(=O)C(=O)CC(=O)c2ccc(F)cc2)c1C` [NUCC-0202067] as the molecule, how does the IC50 read?
**A.** Its IC50 is 21.3 ± 3.1 µM.

**Q.** With `Cc1nccnc1NC(=O)C(=O)CC(=O)c1ccc(F)cc1` [NUCC-0201596] as the molecule, how does the IC50 read?
**A.** Its IC50 is ≥ 30 µM.

**Q.** With `COc1cccc(C(=O)CC(=O)C(=O)Nc2ccc(F)c(F)c2)c1` [NUCC-0201921] as the molecule, how does the IC50 read?
**A.** The IC50 was 17.4 µM.

**Q.** With `O=C(CC(=O)c1ccc(F)cc1)C(=O)NC1CCCC1` [NUCC-0202069] as the molecule, how does the IC50 read?
**A.** The IC50 was ≥ 60 µM.

**Q.** Which IC50 does the source give for `O=C(CC(=O)c1ccc(F)cc1)C(=O)Nc1nccs1` [NUCC-0201692] here?
**A.** The IC50 was 20.8 ± 4.2 µM.

**Q.** Which IC50 does the source give for `O=C(CC(=O)c1ccc(F)cc1)C(=O)Nc1cncc(F)c1` [NUCC-0201693] here?
**A.** The IC50 was 7.42 ± 0.26 µM.

same assay, conditions: AlphaLISA; IC50 converted to Ki with the Cheng and Prusoff equation; read-out: Ki, inhibition of the AFF4-CCNT1 interaction

**Q.** Which Ki does the source give for `Cc1ccc(Cl)cc1NC(=O)C(=O)CC(=O)c1ccc(F)cc1` [KL-2, N-(5-chloro-2-methylphenyl)-4-oxo-(4-fluorophenyl)-2-oxobutanamide] here?
**A.** The Ki was 1.5 µM.

same assay, conditions: tested at 20 μM

**Q.** With `CN1CC[C@H](c2c(O)cc(O)c3c(=O)cc(-c4ccccc4Cl)oc23)[C@H](O)C1` [flavopiridol, reference compound] as the molecule, how does the “disruption of the AFF4-CCNT1 interaction” value read?
**A.** Its value is “neither the pan-CDK9 kinase inhibitor flavopiridol nor the BET domain inhibitors disrupted the AFF4-CCNT1 interaction”.
